US20110027354A1, “ANTI-PA[…]” (priority 2008, published 2011)
Entries after “also recorded” stand apart in the source; their conditions may differ.

Columns and labels:
α-synuclein = assay: Oligomergic α-synuclein expression (western blot); assay type: in vivo, mice; details: striatum; for effect on MPTP-induced increase in oligomergic α-synuclein: vs. MPTP alone
Procedure: (§1) The western blot assays were performed as described previously (thong et al., 1997). Tissues were homogenized in lysis buffer, containing 200 mM Tris HCl (pH 6.8), 1% SDS, 5 mM ethylene glycol tetraacetic acid, 5 mM ethylenediaminetetraacetic acid, 10% glycerol, 1× phosphatase inhibitor cocktail I, 1× protease inhibitor cocktail. The supernatant fraction was subsequently centrifuged at 30,000×g for 30 min. The resulting pellet was resuspended in the sample buffer. Proteins (20-50 ug/lane) were separated by 6%, 8%, 10% or 15% sodium dodecyl sulfate-polyacrylamide gel electrophoresis and transferred onto the nitrocellulose membranes. Following transfer, the nitrocellulose membranes were preincubated with 5% non-fat milk and incubated overnight at 4° C. with anti-β-actin (Sigma, 1:50000), anti-TH (Chemicon, 1:5000), anti-TH phosphoser19 (Chemicon, 1:5000), anti-TH phosphoser31 (Chemicon, 1:500), anti-TH phosphoser40 (Chemicon, 1:500), anti-F 4/80 (Serotec, 1:500), anti-BDNF (Chemicon, 1:500), anti-GDNF (Santa-Cruz, 1:250), anti-Akt (Cell signaling, 1:1000), anti-phospho Akt ser 473 (Cell signaling, 1:1000), anti-PI3K (Cell signaling, 1:1000), anti-phospho PI3K (Cell signaling, 1:500) and anti-α-synuclein (BD Transduction, 1:500) antibody. After incubation with primary antibody, membranes were incubated with the secondary anti-rabbit IgG, Horseradish Peroxidase (1:1000 dilution, Amersham) or anti-mouse IgG, Horseradish Peroxidase (1:1000, Sigma), or anti-goat IgG, Horseradish Peroxidase (1:1000, Sigma) for 2 h, washed. Subsequently visualized with the Amersham ECL system (Amersham, Arlington Heights, Ill., USA).

[1] = test system: F4/80, a marker of reactive microglia; assay: F4/80 expression (western blot); assay type: in vivo, mice; details: striatum; pre-treatment; vs. MPTP alone
Procedure: as §1, with “After incubation with primary antibody, membranes were incubated with the secondary anti-rabbit IgG, Horseradish Peroxidase (1:1000 dilution, Amersham) or anti-mouse IgG, Horseradish Peroxidase (1:1000, Sigma), or anti-goat IgG, Horseradish Peroxidase (1:1000, Sigma) for 2 h, washed. Subsequently visualized with the Amersham ECL system (Amersham, Arlington Heights, Ill., USA).” left out

phospho-Akt = assay: Phosphorylation of Akt at Ser473 (western blot); assay type: in vivo, mice; details: striatum; for effect on MPTP-induced decrease in phospho-Akt: vs. MPTP alone
Procedure: as §1

[2] = test system: tyrosine hydroxylase (TH); assay: TH activity; assay type: in vivo, mice; details: for TH activity: drug alone (no MPTP); for effect on MPTP-induced decrease of TH activity: one day after final MPTP, vs. MPTP alone
[3] = test system: tyrosine hydroxylase (TH); assay: Western blotting for pan-TH and TH phosphorylation; assay type: in vivo, mice; details: for effect on MPTP-induced decrease of TH phosphorylation at Ser19, Ser31 and Ser40: pre-treatment; for effect on MPTP-induced decrease of TH phosphorylation at Ser19, Ser31 and Ser40 / effect on MPTP-induced decrease of TH-immunoreactivity (TH-IR): vs. MPTP alone
Procedure: as §1

[4] = test system: glial cell line-derived neurotrophic factor (GDNF); assay: GDNF expression (western blot); assay type: in vivo, mice; details: striatum; for effect on MPTP-induced reduction of GDNF expression: pre-treatment, vs. MPTP alone
Procedure: as §1

MPTP-treated mice = assay: MPTP-induced hypolocomotion (locomotor activity); assay type: in vivo; details: for effect on MPTP-induced hypolocomotor activity: 2.5 mg/kg/i.p./day×9, vs. MPTP alone
Procedure: (§2) Locomotor activity measured for 30 min one day after the last MPTP administration using an automated video-tracking system (Noldus Information Technology, Wagenin, The Netherlands). Eight test boxes (40×40×30 cm high) were operated simultaneously by an IBM computer. Animals were studied individually during locomotion in each test box, where they were adapted for 5 min before starting the experiment. […] The distance traveled in cm by the animals in horizontal locomotor activity was analyzed. Data were collected and analyzed between 09:00 and 17:00 h (Kim et al., 2001).

phospho-PI3K = assay: Phosphorylation of PI3K (western blot); assay type: in vivo, mice; details: striatum; for effect on MPTP-induced decrease in phospho-PI3K: vs. MPTP alone
Procedure: as §1

[5] = test system: dopamine (DA), DOPAC and HVA in the striatum; assay: HPLC analysis of striatal DA, DOPAC and HVA; assay type: in vivo, mice; details: for effect on MPTP-induced increase of DA turnover rate / effect on MPTP-induced reduction of DOPAC / effect on MPTP-induced reduction of HVA / effect on MPTP-induced reduction of dopamine (DA): 2.5 mg/kg i.p., vs. MPTP alone; for effect on MPTP-induced reduction of dopamine (DA): 2.5 mg/kg; for levels of DA, DOPAC, HVA: drug alone (no MPTP)
Procedure: At 1 day after last MPTP injections mice were killed by cervical dislocation, the brains were removed and placed on an ice-cooled plate. Striatum was dissected and immediately frozen on dry ice and store at −70° C. until extraction. Brain regions obtained from each animal were weighed, ultrasonicated in 10% perchloric acid containing 10 ng/mg of the internal standard dihydroxybenzilamine, and centrifuged at 20,000 g for 10 min. The levels of DA and its metabolites 3,4-dihydroxyphenylacetic acid (DOPAC) and homovanillic acid (HVA) in brain tissue extracts were determined by HPLC coupled with electrochemical detection as described (Ali et al., 1994). Briefly, striatal tissues were sonicated in 0.2 M perchloric acid (20% W/V) containing the internal standard 3,4-dihydroxybenzylamine (10 mg wet tissue/ml) The homogenate was centrifuged and a 20-μl aliquot of the supernatant was injected into the HPLC equipped with a 3-μm C18 column. The mobile phase was comprised of 26 ml of acetonitrile, 21 ml of tetrahydrofuran and 960 ml of 0.15 M monochloroacetic acid (pH 3.0) containing 50 mg/l of EDTA and 200 mg/l of sodium octyl sulfate. The amount of DA, DOPAC and HVA were determined by comparison of peak height ratio of tissue sample with standards, and were expressed in nanograms per gram of wet weight of tissue.

mice = assay: Locomotor activity after repeated treatment with drug alone; assay type: in vivo; details: repeated treatment i.p./day×7, selegiline or MPPE 2.5 or 5.0 mg/kg, MA 0.5 or 1.0 mg/kg; for locomotor activities: vs. saline
Procedure: Selegiline or […] was injected (2.5 or 5 mg/kg, i.p.) once a day for 7 consecutive days. Methamphetamine, a positive control, was also administered (0.5 or 1 mg/kg, i.p.) once a day for 7 days.
as §2

[6] = test system: reactive oxygen species (ROS); assay: Determination of ROS formation; assay type: in vivo, mice; details: striatum; for ROS level: drug alone (no MPTP); for effect on MPTP-induced increase in ROS level: one day after final MPTP, vs. MPTP alone
Procedure: The extent of reactive oxygen species (ROS) formation in the prefrontal cortex was assessed by measuring the conversion from 2′,7′-dichlorofluorescin diacetate (DCFH-DA) to dichlorofluoresin. (DCF) as describe by Bourre et al. with slight modification (Sutsumi, S et al., 2002). Brain homogenates were added to a tube containing 2 ml of PBS with 10 nmole of DCFH-DA, dissolved in methanol. Mixtures were incubated at 37° C. for 3 h and then measured the […] at 480 nm excitation and 525 nm emission. DCF is used as a standard.

[7] = striatum and SN, vs. selegiline+MPTP

Compound | effect on MPTP-induced increase in oligomergic α-synuclein (α-synuclein) | effect on MPTP-induced increase in F4/80-immunoreactivity [1] | effect on MPTP-induced decrease in phospho-Akt (phospho-Akt) | TH activity [2] | effect on MPTP-induced decrease of TH activity ([2]; striatum) | effect on MPTP-induced decrease of TH activity ([2]; substantia nigra (SN)) | effect on MPTP-induced decrease of TH phosphorylation at Ser19, Ser31 and Ser40 ([3]; SN) | effect on MPTP-induced decrease of TH-immunoreactivity (TH-IR) ([3]; SN, western blotting) | effect on MPTP-induced decrease of TH phosphorylation at Ser19, Ser31 and Ser40 ([3]; striatum) | effect on MPTP-induced decrease of TH-immunoreactivity (TH-IR) ([3]; striatum, western blotting) | effect on MPTP-induced reduction of GDNF expression [4] | effect on MPTP-induced hypolocomotor activity (MPTP-treated mice) | effect on MPTP-induced decrease in phospho-PI3K (phospho-PI3K) | effect on MPTP-induced increase of DA turnover rate [5] | effect on MPTP-induced reduction of DOPAC [5] | effect on MPTP-induced reduction of HVA [5] | effect on MPTP-induced reduction of dopamine (DA) [5] | levels of DA, DOPAC, HVA [5] | locomotor patterns (mice) | locomotor activities (mice) | further results
C#CCN(C)CCc1ccccc1 [MPPE, N-methyl-N-propynyl-2-phenylethylamine] | significantly attenuated | significantly blocked increase in F4/80-immunoreactivity induced by MPTP; also recorded: attenuated | significantly attenuated | did not show any significant effect | attenuated | attenuated | reversed | attenuated | reversed | attenuated | significantly attenuated | significantly attenuated | significantly attenuated | attenuated | attenuated | attenuated | significantly attenuated | did not show any significant effect | comparable to those by saline; also recorded: did not show these behavioural side effects | did not significantly alter locomotor activities | protection against α-synuclein increase compared with selegiline (α-synuclein; vs. selegiline+MPTP): more protective effect; attenuation of phospho-Akt decrease compared with selegiline (phospho-Akt; vs. selegiline+MPTP): more pronounced in MPPE-treated mice; attenuation of TH activity decrease compared with selegiline [2, 7]: more effective; effect on TH phosphorylation at Ser19, Ser31 and Ser40 compared with selegiline [3, 7]: more effective; attenuation of TH-IR decrease compared with selegiline ([3]; striatum and SN, western blotting, vs. selegiline+MPTP): more evident; enhancement of GDNF expression compared with selegiline ([4]; vs. selegiline+MPTP): more effective; attenuation of MPTP-induced hypolocomotor activity compared with selegiline (MPTP-treated mice; 2.5 mg/kg i.p., vs. selegiline+MPTP): more pronounced in the MPPE-pretreated mice than selegiline-pretreated case; attenuation of phospho-PI3K decrease compared with selegiline (phospho-PI3K; vs. selegiline+MPTP): more pronounced in MPPE-treated mice; attenuation for DA level compared with selegiline ([5]; vs. selegiline+MPTP): more pronounced in the MPPE-treated mice; attenuation of DA turnover rate increase compared with selegiline ([5]; vs. selegiline+MPTP): more evident than by selegiline; ROS level [6]: a little induction; effect on MPTP-induced increase in ROS level [6]: attenuated; attenuation of ROS increase compared with selegiline ([6]; vs. selegiline+MPTP): appeared to be more underlined in the MPPE-pretreated mice
C#CCN(C)[C@H](C)Cc1ccccc1 [selegiline, reference compound] | significantly attenuated | significantly blocked increase in F4/80-immunoreactivity induced by MPTP; also recorded: attenuated | significantly attenuated | did not show any significant effect | attenuated | attenuated | reversed | attenuated | reversed | attenuated | significantly attenuated | significantly attenuated | significantly attenuated | attenuated | attenuated | attenuated | significantly attenuated | did not show any significant effect | circling locomotor patterns | significantly increased | locomotor patterns (mice; listed as Sel): typical circling locomotor patterns; ROS level [6]: a little induction; effect on MPTP-induced increase in ROS level [6]: attenuated
